# Test results from US11903955B2, “Methods of treating heart failure with reduced ejection fraction” (ASTRAZENECA AB, priority 2019, dated 2024).
# Where “and” joins values, the source holds several entries; their conditions need not be identical. Identical values can stand only once. Like-named read-outs stand apart in the source and are kept apart here. Marks after values point to notes of the source that are not given here.
# Tested on: patients with chronic heart failure with reduced ejection fraction (LVEF ≤40%)
# Conditions: for Change in KCCQ total symptom score at 8 mo., Win ratio (95% CI): >1 indicates superiority; for KCCQ-TSS increase, points more with dapagliflozin compared to placebo: baseline to 8 months
# [1] = dapagliflozin vs placebo, at 8 months
# [2] = individuals with diabetes, dapagliflozin vs placebo
# [3] = individuals without diabetes, dapagliflozin vs placebo
compound,measurement,setting,value
"CCOc1ccc(Cc2cc([C@@H]3O[C@H](CO)[C@@H](O)[C@H](O)[C@H]3O)ccc2Cl)cc1 [Dapagliflozin, dapagliflozin]",Change in KCCQ total symptom score at 8 mo.,No T2DM (N = 1298),5.4 ± 17.7
same,Change in KCCQ total symptom score at 8 mo.,T2DM (N = 1075),7.0 ± 19.7
same,"KCCQ total symptom score, mean difference dapagliflozin vs placebo","all patients, at 8 months",2.8 points
same,patients with deterioration (≥5 point decline) in KCCQ-TSS,"all patients, at 8 months",25% and 25.3%
same,patients with five or greater point (at least small) improvement in KCCQ-TSS,"all patients, at 8 months",58% and 58.3%
same,Change in KCCQ total symptom score at 8 mo.,"all patients, baseline to month 8, mean ± SD",6.1 ± 18.6 points
same,Change in KCCQ total symptom score at 8 mo.,"all patients, baseline to month 8, mean ± SD, listed as dapagliflozin",6.1±18.6 points
same,"mean KCCQ-CSS, points higher than placebo",at 4 months,1.8 points
same,"mean KCCQ-OSS, points higher than placebo",at 4 months,1.7 points
same,"mean KCCQ-TSS, points higher than placebo",at 4 months,1.9 points
same,"mean KCCQ-CSS, points higher than placebo",at 8 months,2.5 points
same,"mean KCCQ-OSS, points higher than placebo",at 8 months,2.3 points
same,number needed to treat (NNT) for at least small (≥5 point) improvement in KCCQ-TSS,at 8 months,14 (10-23)
same,number needed to treat (NNT) for large (≥15 point) improvement in KCCQ-TSS,at 8 months,18 (12-35)
same,number needed to treat (NNT) for moderate (≥10 point) improvement in KCCQ-TSS,at 8 months,15 (11-25)
same,patients with large (≥15 point) improvement in KCCQ-TSS,at 8 months,54.0%
same,patients with moderate (≥10 point) improvement in KCCQ-TSS,at 8 months,54.5%
same,"Change in KCCQ total symptom score at 8 mo., win-ratio (95% CI)","dapagliflozin vs placebo, No T2DM","1.15 (1.05, 1.26)"
same,"Change in KCCQ total symptom score at 8 mo., win-ratio (95% CI)","dapagliflozin vs placebo, T2DM","1.22 (1.11, 1.35)"
same,"Change in KCCQ total symptom score at 8 mo., Win ratio (95% CI)","dapagliflozin vs placebo, all patients",1.18 (1.11-1.26)†
same,"Change in KCCQ total symptom score at 8 mo., Win ratio (95% CI)","dapagliflozin vs placebo, all patients, listed as dapagliflozin",1.18
same,odds ratio (95% CI) for large (≥15 point) improvement in KCCQ-TSS,[1],1.14 (1.07-1.22)
same,odds ratio (95% CI) for moderate (≥10 point) improvement in KCCQ-TSS,[1],1.15 (1.08-1.22)
same,odds ratio for deterioration (≥5 point decline) in KCCQ-TSS,[1],0.84
same,odds ratio for ≥5 point improvement in KCCQ-TSS,[1],1.15
same,patients with deterioration in KCCQ-TSS,individuals with diabetes,24.5%
same,patients with ≥5-point improvement in KCCQ-TSS,individuals with diabetes,58.9%
same,odds ratio for deterioration in KCCQ-TSS,[2],"0.78 (0.71, 0.87)"
same,odds ratio for ≥5-point improvement in KCCQ-TSS,[2],"1.20 (1.09, 1.31)"
same,patients with an increase of at least 5 points in KCCQ-TSS,individuals without diabetes,57.7%
same,patients with significant deterioration in KCCQ-TSS,individuals without diabetes,26.0%
same,odds ratio for increase of at least 5 points in KCCQ-TSS,[3],"1.12 (95% CI 1.03, 1.22)"
same,odds ratio for significant deterioration in KCCQ-TSS,[3],"0.88 (0.81, 0.97)"
same,"KCCQ-TSS increase, points more with dapagliflozin compared to placebo",patients with diabetes,3.5 (95% CI 1.6-5.4) points
same,"KCCQ-TSS increase, points more with dapagliflozin compared to placebo",patients without diabetes,2.2 (95% CI 0.7-3.7) points
